Assay: recombinant barcode read abundance after kanamycin selection (control-corrected) (log10(CPM+1)); higher = more efficient recombination; sequences stand for … in AGTGCAGAGAAAATCGGCCAGTTTTCTCTGCCTGCAGTCCGCATGCCGT…AGATTTATGCAGCGGACTGCCTTTCTCCCAAAGTGATAAACCGGACAGTATCATGGACCGGTTTTCCCGGTAATCCGTATTTGCAAGGTTGGTTTCACT; site = the 11-nt target
Summary of the method: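 Targets and IS621 bridge RNA target-binding loops were paired in oligos, each with a promoter, a barcode and the J23119-driven first 104 bridge RNA bases. A vector carrying the remaining 73 bp and a T7-inducible recombinase received these by Gibson cloning, and the pool was co-electroporated into E. coli with a donor plasmid. Duplicate plates contained chloramphenicol/ampicillin LB agar (control) or chloramphenicol/ampicillin/kanamycin with 0.1 mM IPTG. Recombination efficiency comes from averaged, control-corrected counts per million of recombinant-junction barcodes, reported as log10(CPM+1).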
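Note: IS621 recombinase and bridge RNA in Escherichia coli cells.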

| Sequence | recombinant barcode read abundance (log10) |
| --- | --- |
| GGCACTACTTGGGTTCTAACCTGTTGCCT (site GGCACTACTAG) | 0.392 |
| GGCAGCTCTTGGGTTCTAACCTGTTGCTT (site GGCAGATCTAA) | 0.367 |
| GGCAGCTCTTGGGTTCTAACCTGTTGCTT (site GGCAGCTCTAA) | 0.281 |
| GGCAGCTCTTGGGTTCTAACCTGTTGCTT (site GGCAGGTCTAA) | 0.302 |
| GGCAGCTCTTGGGTTCTAACCTGTTGCTT (site GGCAGTTCTAA) | 0.0524 |
| GGCAGTCCTTGGGTTCTAACCTGTTGCCT (site GGCAGTCCTAA) | 0.111 |
| GGCAGTCCTTGGGTTCTAACCTGTTGCCT (site GGCAGTCCTAG) | 0.206 |
| GGCATCCCTTGGGTTCTAACCTGTTGCTA (site GGCATCCCTTA) | 0.654 |
| GGCATCCCTTGGGTTCTAACCTGTTGCTA (site TTACAGGCTCG) | 0.205 |
| GGCATTCCTTGGGTTCTAACCTGTTGCCT (site GGCACTCCTAG) | 0.0331 |
| GGCATTCCTTGGGTTCTAACCTGTTGCCT (site GGCATTCCTAG) | 0.0435 |
| GGCCTCCCTTGGGTTCTAACCTGTTGCCT (site GGCATCCCTAG) | 0.242 |
| GGCCTCCCTTGGGTTCTAACCTGTTGCCT (site GGCCTCCCTAG) | 0.977 |
| GGCCTCCCTTGGGTTCTAACCTGTTGCCT (site GGCGTCCCTAG) | 0.947 |
| GGCCTCCCTTGGGTTCTAACCTGTTGCCT (site GGCTTCCCTAG) | 0.0579 |
| GGCCTGCCTTGGGTTCTAACCTGTTGCCT (site GGCCTGCCTAG) | 1.31 |
| GGCCTGCCTTGGGTTCTAACCTGTTGCCT (site GTCATGCCTAG) | 0.0864 |
| GGCGAACCTTGGGTTCTAACCTGTTGCAT (site GACGATCCTAT) | 0.126 |
| GGCGAACCTTGGGTTCTAACCTGTTGCAT (site GGCGAACCTAT) | 1.82 |

| Sequence | recombinant barcode read abundance (log10) |
| --- | --- |
| GGCGGTACTTGGGTTCTAACCTGTTGCCT (site GGCGGTACTAG) | 1.12 |
| GGCGGTACTTGGGTTCTAACCTGTTGCCT (site GGCTGCACTAG) | 0.197 |
| GGCGTCCCTTGGGTTCTAACCTGTTGCCT (site GGCATCCCTAG) | 0.284 |
| GGCGTCCCTTGGGTTCTAACCTGTTGCCT (site GGCCTCCCTAG) | 0.286 |
| GGCGTCCCTTGGGTTCTAACCTGTTGCCT (site GGCGTCCCTAG) | 1.3 |
| GGCGTCCCTTGGGTTCTAACCTGTTGCCT (site GGCTTCCCTAG) | 0.0801 |
| GGCTAGCCTTGGGTTCTAACCTGTTGCCT (site GGCTAGCCTAG) | 0.423 |
| GGCTAGCCTTGGGTTCTAACCTGTTGCCT (site TGTTAGCCTAG) | 0 |
| GGCTCCTCTTGGGTTCTAACCTGTTGCAT (site GGATCCTCTAT) | 0.0148 |
| GGCTCCTCTTGGGTTCTAACCTGTTGCAT (site GGCTCCTCTAT) | 0.907 |
| GGCTCCTCTTGGGTTCTAACCTGTTGCCA (site GGCTCCTCTTG) | 0.674 |
| GGCTCCTCTTGGGTTCTAACCTGTTGCCA (site GGTTCATCTTG) | 0.013 |
| GGCTGCCCTTGGGTTCTAACCTGTTGCCT (site GACTGCCCTAG) | 0.156 |
| GGCTGCCCTTGGGTTCTAACCTGTTGCCT (site GCCTGCCCTAG) | 0.57 |
| GGCTGCCCTTGGGTTCTAACCTGTTGCCT (site GGCTGCCCTAG) | 0.258 |
| GGCTGCCCTTGGGTTCTAACCTGTTGCCT (site GTCTGCCCTAG) | 0.149 |
| GGGAACCCTTGGGTTCTAACCTGTTGCTC (site GGGAACCCTAA) | 0.131 |
| GGGAACCCTTGGGTTCTAACCTGTTGCTC (site GGGAACCCTCA) | 0.659 |
| GGGAACCCTTGGGTTCTAACCTGTTGCTC (site GGGAACCCTGA) | 1.16 |
